Data reported in patent US10610520B2, “Heterocyclic compound” (Takeda Pharmaceutical Company Limited, priority 2016, dated 2020).

Molecular target: T1, His-hMAGL (recombinant polyhistidine tagged human MAGL protein) (Homo sapiens, UniProt Q99685)
T1 construct: made in house; host or cells: E. coli BL21(DE3)
T1 sequence (Q99685 1-303): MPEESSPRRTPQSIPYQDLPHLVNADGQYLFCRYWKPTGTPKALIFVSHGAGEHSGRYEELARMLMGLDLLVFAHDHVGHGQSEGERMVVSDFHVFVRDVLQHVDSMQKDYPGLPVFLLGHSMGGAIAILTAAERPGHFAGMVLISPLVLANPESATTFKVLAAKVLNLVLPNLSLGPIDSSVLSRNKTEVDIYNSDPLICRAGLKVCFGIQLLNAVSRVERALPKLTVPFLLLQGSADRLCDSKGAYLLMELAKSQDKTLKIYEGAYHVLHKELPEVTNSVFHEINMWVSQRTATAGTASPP
Assay: Measurement of MAGL inhibitory activity (arachidonic acid production from 2-arachidonylglycerol, RapidFire-mass spectrometry)
Assay type: biochemical
Conditions: MAGL inhibitory rate, test compound 10 μM, 60 min preincubation, 2-arachidonylglycerol substrate
Procedure: The His-hMAGL obtained above was diluted with enzyme reaction buffer (10 mM Tris-HCl, pH 7.5, 1 mM EDTA, 0.025 (w/v) % Triton X-100, 0.01% Bovine serum albumin) to a concentration of 7.5 ng/mL. […] Thereafter, to each well was added 5 μL of 150 μM 2-arachidonylglycerol (Tocris Bioscience), and the mixture was incubated at room temperature for 10 min. Then, 10 μL of 2% formic acid (Wako Pure Chemical Industries, Ltd.) was added to stop the reaction. Furthermore, acetonitrile (50 μL) containing 3 μM arachidonic acid-d8 (Cayman Chemical Company) was added and the mixture was stirred.
The amount of arachidonic acid in the obtained enzyme reaction mixture was calculated by measuring by RapidFire-mass spectrometry and correcting by the amount of arachidonic acid-d8. High Throughput online solid phase extraction was performed using RapidFire 300™ system (Agilent Technologies, Inc.). Samples were loaded on SPE C4 cartridge (Agilent Technologies, Inc.) and desalted with 0.2 (v/v) % acetic acid (Wako Pure Chemical Industries, Ltd.) in ultrapure water/acetonitrile (70/30, v/v) at a flow rate of 1.5 mL/min, eluted at a flow rate of 0.5 mL/min with 0.2 (v/v) % acetic acid dissolved in acetonitrile/ultrapure water (90/10, v/v), and injected into the mass spectrometry part. The injection needle was washed with ultrapure water (500 millisecond) and acetonitrile (500 millisecond) to minimize carry-over. […] The RapidFire300 system was controlled by RapidFire UI software version 3.6 (Agilent Technologies, Inc.).
The mass spectrometry of the resultant product was performed using API4000™ triple quadrupole mass spectrometer (AB SCIEX) equipped with an electrospray ion sauce (TurboIon Spray™) in a negative selected reaction monitoring (SRM) mode. The conditions of SRM are shown below. The parameters of the instrument were optimized as follows: capillary temperature 600° C., ion spray voltage −4.5 kV, collision gas 8, curtain gas 15 psi, ion source gas 1 60 psi, ion source gas 2 60 psi. The mass spectrometer was controlled by Analyst™ software version 1.5.1 (AB SCIEX). The peak area integration was analyzed using RapidFire integrator software version 3.6 (Agilent Technologies, Inc.).
MAGL inhibitory rate (%) was calculated according to the following calculation formula. (1-(arachidonic acid production amount of test compound addition group−arachidonic acid production amount of enzyme-free group)÷(arachidonic acid production amount of test compound-free group−arachidonic acid production amount of enzyme-free group))×100

Structure (SMILES)	inhibition at 10 µM	% inhibition (10 μM) (10 µM)
Cc1ccsc1-c1ccc2c(Cl)c(C(=O)N3CC4(CCC(=O)N4)C3)sc2c1 [Example 235, 2-((3-chloro-6-(3-methyl-2-thienyl)-1-benozthiophen-2-yl)carbonyl)-2,5-diazaspiro[3.4]octan-6-one]	100%	
O=C1NC2(CO1)CN(C(=O)c1sc3ccc(OC(F)(F)F)cc3c1Cl)C2 [Example 262, 2-((3-chloro-5-(trifluoromethoxy)-1-benzothiophen-2-yl)carbonyl)-7-oxa-2,5-diazaspiro[3.4]octan-6-one]	101%	
O=C1NC2(CO1)CN(C(=O)c1sc3cc(C(F)(F)F)ccc3c1Cl)C2 [Example 241, 2-((3-chloro-6-(trifluoromethyl)-1-benzothiophen-2-yl)carbonyl)-7-oxa-2,5-diazaspiro[3.4]octan-6-one]	101%	
O=C1NC2(CO1)CN(C(=O)c1sc3cc(C4CC4)cc(F)c3c1Cl)C2 [Example 311, 2-((3-chloro-6-cyclopropyl-4-fluoro-1-benzothiophen-2-yl)carbonyl)-7-oxa-2,5-diazaspiro[3.4]octan-6-one]	101%	
O=C1NC2(CO1)CN(C(=O)c1sc3cc(F)ccc3c1Cl)C2 [Example 361, 2-((3-chloro-6-fluoro-1-benzothiophen-2-yl)carbonyl)-7-oxa-2,5-diazaspiro[3.4]octan-6-one]	99%	
O=C1NC2(CO1)CN(C(=O)[C@H]1C[C@@H](OCc3ccc(C(F)(F)F)cc3F)C1)C2 (stereo in doubt) [Example 355, 2-((cis-3-((2-fluoro-4-(trifluoromethyl)benzyl)oxy)cyclobutyl)carbonyl)-7-oxa-2,5-diazaspiro[3.4]octan-6-one]		99%
O=C1CCC2(CN(C(=O)c3sc4cc(-c5ccc(C6CC6)cc5)ccc4c3Cl)C2)N1 [Example 217, 2-((3-chloro-6-(4-cyclopropylphenyl)-1-benzothiophen-2-yl)carbonyl)-2,5-diazaspiro[3.4]octan-6-one]	97%	
Cc1ccc(-c2ccc3c(Cl)c(C(=O)N4CC5(CCC(=O)N5)C4)sc3c2)cn1 [Example 227, 2-((3-chloro-6-(6-methylpyridin-3-yl)-1-benzothiophen-2-yl)carbonyl)-2,5-diazaspiro[3.4]octan-6-one]	99%	
CC(C)c1ccccc1-c1ccc2c(Cl)c(C(=O)N3CC4(CCC(=O)N4)C3)sc2c1 [Example 189, 2-((3-chloro-6-(2-isopropylphenyl)-1-benzothiophen-2-yl)carbonyl)-2,5-diazaspiro[3.4]octan-6-one]	100%	
CC(C)(C)c1ccc(-c2ccc(C(=O)N3CC4(CCC(=O)N4)C3)cc2)cc1 [Example 54, 2-((4′-tert-butylbiphenyl-4-yl)carbonyl)-2,5-diazaspiro[3.4]octan-6-one]	99%	
O=C1NC2(CO1)CN(C(=O)c1sc3cc(Br)cc(F)c3c1Cl)C2 [Example 285, 2-((6-bromo-3-chloro-4-fluoro-1-benzothiophen-2-yl)carbonyl)-7-oxa-2,5-diazaspiro[3.4]octan-6-one]	100%	
Cc1cccc(F)c1-c1ccc2c(Cl)c(C(=O)N3CC4(CCC(=O)N4)C3)sc2c1 [Example 203, 2-((3-chloro-6-(2-fluoro-6-methylphenyl)-1-benzothiophen-2-yl)carbonyl)-2,5-diazaspiro[3.4]octan-6-one]	101%	
O=C1CCC2(CN(C(=O)c3sc4cc(-c5cc(F)ccc5F)ccc4c3Cl)C2)N1 [Example 212, 2-((3-chloro-6-(2,5-difluorophenyl)-1-benzothiophen-2-yl)carbonyl)-2,5-diazaspiro[3.4]octan-6-one]	100%	
O=C1NC2(CO1)CN(C(=O)c1sc3cc(OC(F)(F)F)ccc3c1C(F)(F)F)C2 [Example 261, 2-((6-(trifluoromethoxy)-3-(trifluoromethyl)-1-benzothiophen-2-yl)carbonyl)-7-oxa-2,5-diazaspiro[3.4]octan-6-one]	100%	
COC(=O)c1ccc(-c2ccc(CC3CCN(C(=O)N4CC5(CCC(=O)N5)C4)CC3)cc2)cc1 [Example 109, methyl 4′-((1-((6-oxo-2,5-diazaspiro[3.4]oct-2-yl)carbonyl)piperidin-4-yl)methyl)biphenyl-4-carboxylate]	98%	
Cc1cc(CO[C@H]2C[C@H](C(=O)N3CC4(COC(=O)N4)C3)C2)ccc1Cl [Example 358, 2-((trans-3-((4-chloro-3-methylbenzyl)oxy)cyclobutyl)carbonyl)-7-oxa-2,5-diazaspiro[3.4]octan-6-one]	100%	
CC(C)c1cccc(-c2ccc3c(Cl)c(C(=O)N4CC5(CCC(=O)N5)C4)sc3c2)c1 [Example 188, 2-((3-chloro-6-(3-isopropylphenyl)-1-benzothiophen-2-yl)carbonyl)-2,5-diazaspiro[3.4]octan-6-one]	99%	
O=C1CCC2(CN(C(=O)c3ccc(-c4cc(F)c(F)cc4F)cc3)C2)N1 [Example 70, 2-((2′,4′,5′-trifluorobiphenyl-4-yl)carbonyl)-2,5-diazaspiro[3.4]octan-6-one]	97%	
O=C1CCC2(CN(C(=O)c3sc4ccc(Cl)cc4c3-c3ccccc3)C2)N1 [Example 143, 2-((5-chloro-3-phenyl-1-benzothiophen-2-yl)carbonyl)-2,5-diazaspiro[3.4]octan-6-one]	100%	
O=C1CCC2(CCN(C(=O)N3CC(COc4ccc(C(F)(F)F)cc4F)C3)C2)N1 (stereo not drawn) [Example 319, 7-((3-((2-fluoro-4-(trifluoromethyl)phenoxy)methyl)azetidin-1-yl)carbonyl)-1,7-diazaspiro[4.4]nonan-2-one]	96%	
COc1c(C(=O)N2CC3(COC(=O)N3)C2)sc2c(C(F)(F)F)cccc12 [Example 270, 2-((3-methoxy-7-(trifluoromethyl)-1-benzothiophen-2-yl)carbonyl)-7-oxa-2,5-diazaspiro[3.4]octan-6-one]	100%	
O=C1CCC2(CN(C(=O)c3sc4cc(-c5cccc(C(F)(F)F)c5)ccc4c3Cl)C2)N1 [Example 196, 2-((3-chloro-6-(3-(trifluoromethyl)phenyl)-1-benzothiophen-2-yl)carbonyl)-2,5-diazaspiro[3.4]octan-6-one]	99%	
COc1cc(-c2ccccc2)ccc1C(=O)N1CC2(CCC(=O)N2)C1 [Example 43, 2-((3-methoxybiphenyl-4-yl)carbonyl)-2,5-diazaspiro[3,4]octan-6-one]	87%	
O=C1CCC2(CN(C(=O)c3sc4cc(-c5cccc(Cl)c5)ccc4c3Cl)C2)N1 [Example 190, 2-((3-chloro-6-(3-chlorophenyl)-1-benzothiophen-2-yl)carbonyl)-2,5-diazaspiro[3.4]octan-6-one]	99%	
Cc1cc(C(=O)N2CC3(CCC(=O)N3)C2)ccc1-c1ccccc1 [Example 118, 2-((2-methylbiphenyl-4-yl)carbonyl)-2,5-diazaspiro[3.4]octan-6-one]	87%	
O=C1CCC2(CN(C(=O)N3CC(COc4ccc(Br)cc4F)C3)C2)N1 [Example 16, 2-((3-((4-bromo-2-fluorophenoxy)methyl)azetidin-1-yl)carbonyl)-2,5-diazaspiro[3.4]octan-6-one]	104%	
O=C1CCC2(CN(C(=O)c3sc4cc(-c5ccc(F)cc5)ccc4c3Cl)C2)N1 [Example 36, 2-((3-chloro-6-(4-fluorophenyl)-1-benzothiophen-2-yl)carbonyl)-2,5-diazaspiro[3.4]octan-6-one]	99%	
